Measurements as given in patent US20040058956A1, “Pharmaceutical composition having an improved water solubility” (priority 2000, published 2004).

With `Fc1ccc(/C=C/c2nc(COc3cccc(CCCn4ccnn4)c3)co2)cc1` [B3, 1-{3-[3-({2-[(E)-2-(4-fluorophenyl)ethenyl]-1,3-oxazol-4-yl}methoxy)phenyl]propyl}-1H-1,2,3-triazole] the melting point was 105 to 106 °C.

`FC(F)(F)c1ccc(/C=C/c2nc(COc3ccc(CCCn4ccnn4)cc3)co2)cc1` [B5, 1-(3-{4-[(2-{(E)-2-[4-(trifluoromethyl)phenyl]ethenyl}-1,3-oxazol-4-yl)methoxy]phenyl}propyl)-1H-1,2,3-triazole] showed a melting point of 157 to 158 °C.

`Fc1ccc(/C=C/c2nc(COc3ccc(CCCCn4ccnn4)cc3)co2)c(F)c1` [B7, 1-{4-[4-({2-[(E)-2-(2,4-difluorophenyl)ethenyl]-1,3-oxazol-4-yl}methoxy)phenyl]butyl}-1H-1,2,3-triazole] showed a melting point of 115 to 117 °C.

`Fc1ccc(/C=C/c2nc(COc3cccc(CCCn4ccnn4)c3)co2)c(F)c1` [B8, 1-{3-[3-({2-[(E)-2-(2,4-difluorophenyl)ethenyl]-1,3-oxazol-4-yl}methoxy)phenyl]propyl}-1H-1,2,3-triazole] showed a melting point of 89 to 90 °C.

`Cc1ccc(/C=C/c2nc(COc3ccc(CCCCn4ccnc4CCO)cc3)co2)cc1` [B10, 2-[1-[4-[4-[[2-[(E)-2-(4-methylphenyl)ethenyl]-1,3-oxazol-4-yl]methoxy]phenyl]butyl]-1H-imidazol-2-yl]-1-ethanol] gave a melting point of 108 to 109 °C.

In the case of `Cc1cccc(/C=C/c2nc(COc3ccc(CCCCn4ccnc4CCO)cc3)co2)c1` [B11, 2-[1-[4-[4-[[2-[(E)-2-(3-methylphenyl)ethenyl]-1,3-oxazol-4-yl]methoxy]phenyl]butyl]-1H-imidazol-2-yl]-1-ethanol], the melting point is reported as 109 to 111 °C.

Work on `CCc1ccc(/C=C/c2nc(COc3ccc(CCCCn4ccnc4CCO)cc3)co2)cc1` [B13, 2-[1-[4-[4-[[2-[(E)-2-(4-ethylphenyl)ethenyl]-1,3-oxazol-4-yl]methoxy]phenyl]butyl]-1H-imidazol-2-yl]-1-ethanol] yielded a melting point of 94 to 95 °C.

`OCCc1nccn1CCCCc1ccc(OCc2coc(/C=C/c3ccc(F)cc3)n2)cc1` [B14, 2-(1-{4-[4-({2-[(E)-2-(4-fluorophenyl)ethenyl]-1,3-oxazol-4-yl}methoxy)phenyl]butyl}-1H-imidazol-2-yl)-1-ethanol] showed a melting point of 130 to 132 °C.

`OCCc1nccn1CCCCc1ccc(OCc2coc(/C=C/c3ccc(Cl)cc3)n2)cc1` [B15, 2-[1-[4-[4-[[2-[(E)-2-(4-chlorophenyl)ethenyl]-1,3-oxazol-4-yl]methoxy]phenyl]butyl]-1H-imidazol-2-yl]-1-ethanol] gave a melting point of 127 to 128 °C.

For `OCCc1nccn1CCCCc1ccc(OCc2coc(/C=C/c3ccc(Br)cc3)n2)cc1` [B16, 2-[1-[4-[4-[[2-[(E)-2-(4-bromophenyl)ethenyl]-1,3-oxazol-4-yl]methoxy]phenyl]butyl]-1H-imidazol-2-yl]-1-ethanol], the melting point was 149 to 150 °C.

With `OCCc1nccn1CCCc1ccc(OCc2coc(/C=C/c3ccc(F)cc3F)n2)cc1` [B20, 2-[1-[3-[4-[[2-[(E)-2-(2,4-difluorophenyl)ethenyl]-1,3-oxazol-4-yl]methoxy]phenyl]propyl]-1H-imidazol-2-yl]-1-ehtanol] the melting point was 94 to 96 °C.

For `Cc1cccc(/C=C/c2nc(COc3ccc(CCCCn4ccnc4CC(O)CO)cc3)co2)c1` (stereo not shown) [B22, 3-(1-{4-[4-({2-[(E)-2-(3-methylpheyl)ethenyl]-1,3-oxazol-4-yl}methoxy)phenyl]butyl}-1H-imidazol-2-yl)-1,2-propanediol], the melting point was 102 to 104 °C.

In the case of `OCC(O)Cc1nccn1CCCCc1ccc(OCc2coc(/C=C/c3ccc(F)cc3)n2)cc1` (stereo not shown) [B23, 3-(1-{4-[4-({2-[(E)-2-(4-fluorophenyl)ethenyl]-1,3-oxazol-4-yl}methoxy)phenyl]butyl}-1H-imidazol-2-yl)-1,2-propanediol], the melting point is reported as 114 to 116 °C.

Work on `OCC(O)Cc1nccn1CCCCc1ccc(OCc2coc(/C=C/c3ccc(C(F)(F)F)cc3)n2)cc1` (stereo not shown) [B24, 3-[1-(4-{4-[(2-{(E)-2-{4-(trifluoromethyl)phenyl}ethenyl}-1,3-oxazol-4-yl)methoxy]phenyl}butyl]-1H-imidazol-2-yl]-1,2-propanediol] yielded a melting point of 142 to 143 °C.

In the case of `OCC(O)Cc1nccn1CCCc1cccc(OCc2coc(/C=C/c3ccc(C(F)(F)F)cc3)n2)c1` (stereo not shown) [B25, 3-[1-(3-{3-[(2-{(E)-2-[4-(trifluoromethyl)phenyl]ethenyl}-1,3-oxazol-4-yl)methoxy]phenyl}propyl)-1H-imidazol-2-yl]-1,2-propanediol], the melting point is reported as 102 to 104 °C.

In the case of `OCC(O)Cc1nccn1CCCc1cccc(OCc2coc(/C=C/c3ccc(F)cc3F)n2)c1` (stereo not shown) [B27, 3-(1-{3-[3-({2-[(E)-2-(2,4-difluorophenyl)ethenyl]-1,3-oxazol-4-yl}methoxy)phenyl]propyl}1H-imidazol-2-yl)-1,2-propanediol], the melting point is reported as 92 to 94 °C.

For `OCC(O)Cc1nccn1CCCCc1ccc(OCc2coc(/C=C/c3c(F)cccc3F)n2)cc1` (stereo not shown) [B28, 3-[1-[4-[4-[[2-[(E)-2-(2,6-difluorophenyl)ethenyl]-1,3-oxazol-4-yl]methoxy]phenyl]butyl]-1H-imidazol-2-yl]-1,2-propanediol], the melting point was 123 to 125 °C.

With `Fc1ccc(/C=C/c2nc(COc3ccc(CCCCn4ccnn4)cc3)co2)cc1` [Reference Example B2, 1-{4-[4-({2-[(E)-2-(4-fluorophenyl)ethenyl]-1,3-oxazol-4-yl}methoxy)phenyl]butyl}-1H-1,2,3-triazole] the melting point was 124 to 125 °C.

With `FC(F)(F)c1ccc(/C=C/c2nc(COc3cccc(CCCn4ccnn4)c3)co2)cc1` [Reference Example B6, 1-(3-{3-[(2-{(E)-2-[4-(trifluoromethyl)phenyl]ethenyl}-1,3-oxazol-4-yl)methoxy]phenyl}propyl)-1H-1,2,3-triazole] the melting point was 115 to 116 °C.

Compound `Cc1ccccc1/C=C/c1nc(COc2ccc(CCCCn3ccnc3CCO)cc2)co1` [Reference Example B12, 2-[1-[4-[4-[[2-[(E)-2-(2-methylphenyl)ethenyl]-1,3-oxazol-4-yl]methoxy]phenyl]butyl]-1H-imidazol-2-yl]-1-ethanol] has a melting point of 91 to 93 °C.

For `OCCc1nccn1CCCCc1ccc(OCc2coc(/C=C/c3ccc(F)cc3F)n2)cc1` [Reference Example B19, 2-[1-[4-[4-[[2-[(E)-2-(2,4-difluorophenyl)ethenyl]-1,3-oxazol-4-yl]methoxy]phenyl]butyl]-1H-imidazol-2-yl]-1-ethanol], the melting point was 93 to 95 °C.

`OCC(O)Cc1nccn1CCCCc1ccc(OCc2coc(/C=C/c3ccc(F)cc3F)n2)cc1` (stereo not shown) [Reference Example B26, 3-(1-{4-[4-({2-[(E)-2-(2,4-difluorophenyl)ethenyl]-1,3-oxazol-4-yl}methoxy)phenyl]butyl}-1H-imidazol-2-yl)-1,2-propanediol] showed a melting point of 126 to 128 °C.
